These results are taken from patent US9603865B2, “Methods for the treatment of hepatitis B and hepatitis D virus infections” (priority 2014, dated 2017).

Data set [1] relates to DHBV. Put plainly: Serum DHBV DNA by quantitative PCR in DHBV infected Pekin ducks, combination treatment (Example III). It is filed as in vivo. As for the experimental part:
The antiviral effect of combined treatment with the calcium chelate complex of REP 2139 (REP 2139-Ca) and TDF or REP 2139-Ca and TDF and ETV in DHBV infected Pekin ducks was examined by assessing changes in the levels of serum and liver DHBV DNA during and after treatment by quantitative PCR. Infection of ducks was carried out as described in Example II except that treatment was started one month after infection. Treatment regimens were as follows: • 1) Normal saline given by IP injection 3 times per week for 4 weeks • 2) TDF, given 15 mg/day by oral gavage for 28 days • 3) REP 2139-Ca, given 10 mg/kg by IP injection, 3 times per week for 4 weeks. • 4) REP 2139-Ca and TDF (as dosed above) • 5) REP 2139-Ca and TDF (as dosed above) and ETV given 1 mg/day by oral gavage for 28 days.
Serum DHBV DNA was assessed pre-treatment (time point A), at day 14 of treatment (time point B), at the end of treatment (time point C), and one and two months after treatment was stopped (follow-up, time point D and E).

Data set [2] relates to HBV. Put plainly: Serum HBsAg by on-site qualitative ELISA in a patient with chronic HBV infection (Example I). It is filed as in vivo, human. Conditions: REP 2055 monotherapy, once weekly IV infusion of 400 mg, 29 weeks, one patient. As for the experimental part:
(§1) A pharmaceutically acceptable formulation of the NAP REP 2055 (SEQ ID NO: 2) was administered to a patient with chronic HBV infection by once weekly IV infusion of 400 mg. The serum HBsAg response in this patient was monitored real-time each week using a qualified, on-site qualitative ELISA. This ELISA method is very sensitive to low levels of HBsAg but cannot accurately quantify any significant HBsAg concentration in the blood. […] Therefore, after 29 weeks of REP 2055 monotherapy, this patient received HBV polymerase inhibition therapy in addition to the existing REP 2055 therapy which consisted of 0.5 mg of entecavir taken orally every day.
This synergistic control of serum HBsAg with combined REP 2055/ETV treatment was maintained over many weeks of treatment.
For orientation: An ELISA detects its analyte on a solid surface through an enzyme-linked reagent.

Data set [3] relates to HBV. The data set can be described thus: Serum viremia (serum HBV DNA) in a patient with chronic HBV infection (Example I). The following applies: REP 2055 monotherapy, once weekly IV infusion of 400 mg, one patient. Format: in vivo, human. As for the experimental part:
as §1

For data set [4], the system named is HBV. Put plainly: Quantitative serum HBsAg by IMPACT platform in a patient with chronic HBV infection (Example I). It is filed as in vivo, human. Conditions: REP 2055 monotherapy; plateau from 10 weeks until 29 weeks. The text has this:
To confirm the synergistic activity of combination REP 2055/ETV therapy on suppression of HBsAg, serum samples from this patient were re-analyzed using the IMPACT platform to accurately quantitate serum HBsAg levels as described in de Neit et al. (2014, Antiviral Ther., 19: 259-267). […] Importantly, serum HBsAg reduction in this patient reached a plateau where significant serum HBsAg was stably present starting from 10 weeks of REP 2055 treatment until the start of combination REP 2055/ETV therapy at 29 weeks of treatment.

Data set [5] concerns DHBV. Conditions: previously established DHBV infection in vivo; cited from earlier work.

Structures can show the parent of a compound that is named as a salt.

Regarding `CC(C)OC(=O)OCOP(=O)(CO[C@H](C)Cn1cnc2c(N)ncnc21)OCOC(=O)OC(C)C` [TDF, tenofovir disoproxil fumarate], the “serum DHBV DNA during treatment” value in the data set with DHBV [1] (28 days treatment, day 14 (halfway) and end of treatment, REP 2139-Ca 10 mg/kg IP 3 times per week, TDF 15 mg/day, ETV 1 mg/day oral gavage) is reported as “reduced in all ducks but control was not achieved in all ducks until the end of treatment”. Further, in the data set on DHBV [1] (one and two months after treatment was stopped), the “serum DHBV DNA during follow-up” value is “rebounded in all ducks”.

For “(dAdC)20 (ACACACACACACACACACACACACACACACACACACACAC; DNA, all phosphorothioate, methylation of C not given here) [REP 2055, Each linkage is phosphorothioated]”, the “serum HBsAg (qualitative ELISA)” value in the data set on HBV [2] is listed as “no detectable reduction”. In addition, the “drop in serum viremia (serum HBV DNA)” value with HBV [3] is roughly 1 log. Further, the “initial reduction of serum HBsAg (quantitative, IMPACT platform)” value in the data set on HBV [4] is roughly 2 log. Further, in the data set on DHBV [5], the cccDNA copy number result is listed as “reduction in cccDNA copy number”, the cccDNA transcriptional activity entry is “transcriptional inactivation of cccDNA” and the “serum duck HBsAg (DHBsAg)” value is reported as “clearance”.
